Data published in the RepoRT retention time repository.
Where a name gives a salt, the structure may show the parent alone.

Experiment: RP, Waters ACQUITY UPLC HSS T3, 150 × 2.1 mm, 1.8 µm, 45 °C, 0.6 mL/min, estimated dead time 0.55 min; A: water + 0.1% formic acid, pH 3; B: acetonitrile + 0.1% formic acid, pH 3; gradient (min/%B) 0/1 0.1/1 10/55 10.15/65 10.30/75 10.45/85 10.60/95 10.70/100 11/100 11.55/100 11.65/1 11.70/1 11.80/1 11.90/1 12/1 12.10/1 12.15/1 12.65/1
Conditions: stereoisomer not certain

Nc1nc2c(ncn2C2OC(CO)C(O)C2O)c(=O)[nH]1 (configuration not stated) [Guanosine] and O=c1ccn(C2OC(CO)C(O)C2O)c(=O)[nH]1 (configuration not stated) [Uridine] are within 1.5-fold of each other in LC retention time: 1.43 min for the first, 1.38 min for the second.

CC(CCC(=O)NCC(=O)O)C1CCC2C3CCC4CC(OS(=O)(=O)O)CCC4(C)C3CCC12C (configuration not stated) [Glycolithocholic acid-3-sulfate] and CC(CCC(=O)O)C1CCC2C3CCC4CC(O)CCC4(C)C3CC(O)C12C (configuration not stated) [Deoxycholic acid] are within 1.5-fold of each other in LC retention time: 10.2 min for the first, 10.9 min for the second.

First: O=S(=O)(O)Oc1ccccc1 [Phenol sulfate]
Second: O=C(O)c1ccccc1O [Salicylic acid]
The LC retention time of the first is 1.8-fold lower: 3.01 min for the first, 5.48 min for the second.

O=C(O)CCCCCCCC(=O)O [Azelaic acid] and CCCc1oc(CCC(=O)O)c(C(=O)O)c1C [3-Carboxy-4-methyl-5-propyl-2-furanpropionic acid (CMPF)] are within 1.5-fold of each other in LC retention time: 5.48 min for the first, 8.1 min for the second.

O=C(O)c1c(O)cccc1O [2,6-Dihydroxybenzoic acid] and O=C(O)Cc1ccccc1O [2-Hydroxyphenylacetic acid] are within 1.5-fold of each other in LC retention time: 3.76 min for the first, 4.11 min for the second.

NC(Cc1ccccc1)C(=O)O (configuration not stated) [Phenylalanine] and NC(Cc1ccc(O)cc1)C(=O)O (configuration not stated) [Tyrosine] are within 1.5-fold of each other in LC retention time: 2.05 min for the first, 1.38 min for the second.

O=C(O)c1ccc(CO)o1 [Sumiki's acid] and O=C(O)CNC(=O)c1cccc(O)c1 [3-Hydroxyhippuric acid] are within 1.5-fold of each other in LC retention time: 2.1 min for the first, 2.73 min for the second.

First: Cc1ccc(OC2OC(C(=O)O)C(O)C(O)C2O)cc1 (configuration not stated) [p-Cresol glucuronide]
Second: CC(C)Cc1ccc(C(C)C(=O)OC2OC(C(=O)O)C(O)C(O)C2O)cc1 (configuration not stated) [Ibuprofen acyl glucuronide]
The LC retention time of the first is 2-fold lower: 4.3 min for the first, 8.62 min for the second.

Compared with Cc1ccc(C(C)C)c(OS(=O)(=O)O)c1 [Thymol Sulfate], O=C(O)c1cc(O)cc(O)c1 [3,5-Dihydroxybenzoic acid] is 3.1-fold lower in LC retention time: 7.37 min for the first, 2.35 min for the second.

O=c1[nH]c(=O)c2[nH]cnc2[nH]1 [Xanthine] and O=c1[nH]cnc2nc[nH]c12 [Hypoxanthine] are within 1.5-fold of each other in LC retention time: 1.31 min for the first, 1.2 min for the second.

First: CC(CCC(=O)O)C1CCC2C3C(=O)CC4CC(O)CCC4(C)C3CC(O)C12C (configuration not stated) [7-Ketodeoxycholic acid]
Second: CC(C)CC(=O)NCC(=O)O [N-Isovaleroylglycine]
The LC retention time of the first is 2.8-fold higher: 8.65 min for the first, 3.07 min for the second.
